# Results from publication PMC9573943, “Contribution of the 12–17 hydrophobic region of islet amyloid polypeptide in self-assembly and cytotoxicity” (Frontiers in Molecular Biosciences, 2022).
# Bridge positions count the residues as written; N and C are the ends. Ends that are not written are not given here.
# How the values were obtained:
# [1] = Peptide self-assembly under fully quiescent conditions (CD, ThT and ANS fluorescence, TEM, AFM); type: physicochemical; details: 50 μM peptide; for Assemblies observed by TEM after 48 h incubation: negative stain TEM; for ThT fluorescence of incubated peptide, in words: diluted to 25 μM with 40 μM ThT; for Incubation time at which the random coil to β-sheet conformational transition is seen (far-UV CD) / Secondary conformation / conformational transition over incubation (far-UV CD), in words: fully quiescent; for Incubation time at which the random coil to β-sheet conformational transition is seen (far-UV CD): microtubes, diluted to 25 μM for CD; for Secondary conformation / conformational transition over incubation (far-UV CD), in words: up to 7 days
# Description: Solutions were prepared by dissolving the peptide at a concentration of 50 μM in 20 mM Tris-HCl, pH 7.4, and were incubated at room temperature without agitation in 1.5 ml Eppendorf microtubes. For IAPP12-17, the lyophilized peptide was dissolved in 20 mM acetate pH 6.5 in the presence of 3% DMSO, or HFIP, at a final concentration of 500 μM and the peptide solution was incubated at 37 °C under constant rotational agitation.
# At the indicating time of incubation, peptide solutions were diluted to 25 μM in presence of 40 μM ThT, or 25 μM 8-anilino-1-naphthalenesulfonic acid (ANS). Fluorescence was measured in 10-mm pathlength microcells using a PTI QuantaMaster spectrofluorometer. For ThT, excitation was set at 440 nm, and the emission spectrum from 450 to 550 nm was recorded. For ANS, the excitation was set at 355 nm, and the emission scan was recorded from 385 to 585 nm.
# After incubation, peptide solutions were diluted in water to 25 μM and incorporated into a 2-mm path length quartz cell. For IAPP12-17, the solution was diluted to 150 μM. Far-UV CD spectra were recorded from 190 to 260 nm using a Jasco J-815 CD spectropolarimeter at 25°C. The wavelength step was set at 0.5 nm with an average time of 10 s per scan at each wavelength. Spectra were background-subtracted with buffer solution. Raw data were converted to mean residue ellipticity (MRE): MRE=Mean residue weight (g/mol)X CD signal (deg)/10 X pathlength (cm) X peptide concentration (g/mL)
# After incubation, peptide solutions were diluted to 10 μM, or 100 μΜ for IAPP12-17, before being applied on glow-discharged carbon films on 300-mesh copper grids. Samples were adsorbed and negatively stained with 1.5% uranyl formate for 45 s. Images were recorded using a FEI Tecnai G2 Spirit Twin microscope operating at 120 kV and equipped with a Gatan Ultrascan scan 4,000 4k × 4k CCD camera system.
# After incubation, peptide solutions were diluted in 1% acetic acid to a concentration of 7.5 μΜ. […] Images were recorded using Veeco/Bruker multimode AFM instrument using ScanAsyst-air mode with a silicon tip (2–12 nm tip radius, 0.4 N/m force) on a nitride lever. Images were taken at 0.977 Hz and 512 scan/min.
# [2] = test system: INS-1E cells; experiment: Cell viability by resazurin reduction; type: cell-based, Rat; details: 24 h, at least five assays; for Cell viability: 50 μM freshly dissolved peptide, relative to vehicle-treated cells; for Cytotoxicity compared with unmodified IAPP, in words: freshly dissolved peptide up to 50 μM
# Description: (§1) Rat INS-1E cells were cultured in treated black-wall clear-bottom 96-well plates at a density of 25,000 cell/well in RPMI-1640 medium supplemented with 10% FBS, 2 mM L-glutamine, 100 U/ml penicillin, 100 μg/ml streptomycin, 10 mM HEPES, 1 mM sodium pyruvate and 50 μM β-mercaptoethanol. After 48 h of incubation at 37°C in 5% CO2, cells were treated with 50 μL of peptide freshly dissolved in 20 mM Tris-HCl, pH 7.4. […] Cell viability (%) was calculated from the ratio of the fluorescence of the treated cells to the vehicle-treated cells. Data of at least five assays performed with different peptide lots were averaged and expressed as the mean ± S.D. Statistical analysis was performed using Student’s t test, and statistically significant difference was established at (*) p < 0.05; (**) p < 0.005; (***) p < 0.0005. For Live/Dead viability assay, cells were plated in 12-well plates at density of 250,000 cell/well for 48 h before treatment with 25 μM peptide.
# [3] = test system: INS-1E cells; experiment: Live/Dead viability assay (calcein-AM / ethidium homodimer-1, fluorescence microscopy); type: cell-based, Rat; details: 25 μM freshly solubilized peptide, 24 h, calcein-AM (green, live) and ethidium homodimer-1 (red, dead)
# Description: as §1
# [4] = Lipid membrane leakage (calcein-loaded LUVs); details: 25 μM peptide, 500 μM phospholipids; for Maximum membrane leakage (calcein fluorescence, % of that with Triton X-100): LUVs DOPC:DOPG 9:1, 20 mM Tris-HCl, 150 mM NaCl, pH 7.4, read every 10 min over 24 h, IAPP value reached after 10 h, at least four assays
# Description: Large unilamellar vesicles (LUVs) were assembled from 1,2-Dioleoyl-sn-glycero-3-phosphocholine (DOPC) and 2-dioleoyl-sn-glycero-3-phospho-(1′-rac-glycerol) (DOPG) at a 9:1 M ratio (DOPC:DOPG). Lipids were solubilized in 100% chloroform, which was then evaporated. […] The lipid mixture was freeze-thawed five times before being extruded through a 100 nm membrane for 20 cycles. Nonencapsulated calcein was removed by gel filtration using a Sephadex G25 fine resin and 20 mM Tris-HCl, 150 mM NaCl, pH 7.4, as elution buffer. Final lipid concentration was determined by a colorimetric assay ([Babych et al., 2021]). Lyophilized peptides were solubilized in 20 mM Tris-HCl, 150 mM NaCl, pH 7.4, at 50 μM prior to dilution into calcein-LUVs, to reach 25 μM peptide and 500 μM phospholipids. Fluorescence was monitored in sealed black-wall, clear-bottom 96-well non-binding surface plates with 100 μL/well. […] 100% leakage (Fmax) was determined with 0.2% Triton X-100 and LUV leakage was reported using:
# Membrane leakage (%) = (F−F baseline)/(F max−F baseline)
# Data of at least four assays with different peptide lots were averaged and expressed as the mean ± S.D. Statistical analysis was performed using Student’s t test, and statistically significant difference was established at (*) p < 0.05; (**) p < 0.005; (***) p < 0.0005.
# [5] = Kinetics of amyloid formation monitored by ThT fluorescence; type: physicochemical; details: 25 μM peptide, 40 μM ThT, 20 mM Tris-HCl pH 7.4, 25°C, no agitation, nonbinding surface 96-well plate, read every 10 min, lag time = T50 - 2/k, mean ± S.D. of at least six assays
# Description: Aggregation mixtures were prepared by dissolving the lyophilized peptide at a concentration of 50 μM in 20 mM Tris-HCl, pH 7.4. Assays were performed at 25°C without stirring in sealed black-wall clear-bottom 96-well nonbinding surface plates with 100 μL/well. Final peptide concentrations were 12.5 and 25 μM, and thioflavin T (ThT) concentration was fixed at 40 μM. Fluorescence was measured every 10 min (excitation: 440 nm, emission: 485 nm) and data from triplicate wells were averaged, corrected by subtracting the blank control, and plotted as ThT fluorescence vs. time. Data were normalized with maximum ThT fluorescence intensity obtained for unmodified IAPP. Data were fitted to a sigmoidal Boltzmann model: Y=Yo+(Ymax−Yo)/1+e^−(T−T50)/ K where T 50 is the time required to reach half of the maximum fluorescence intensity, k is the apparent first-order constant, and Y max and Y 0 are the maximum and initial ThT fluorescence values. Lag time corresponds to T50 - 2/k. Data of at least six assays performed with different peptide lots were averaged and expressed as the mean ± S.D. Statistical analysis was performed using Student’s t test, and statistically significant difference between IAPP and analogs was established at (*) p < 0.05; (**) p < 0.005; (***) p < 0.0005.
# [6] = 20 mM Tris-HCl pH 7.4, quiescent
# [7] = 20 mM Tris-HCl pH 7.4, room temperature
Molecule,"Assemblies observed by TEM after 48 h incubation [1, 6]","ANS fluorescence of incubated peptide, in words ([1]; 20 mM Tris-HCl pH 7.4, quiescent, diluted to 25 μM with 25 μM ANS)","ThT fluorescence of incubated peptide, in words [1, 6]","Incubation time at which the random coil to β-sheet conformational transition is seen (far-UV CD) [1, 7]","Secondary conformation / conformational transition over incubation (far-UV CD), in words [1, 7]","Assemblies observed by AFM after 24 h incubation ([1]; 20 mM Tris-HCl pH 7.4, room temperature, no agitation, 24 h)",Cell viability [2],"Cytotoxicity compared with unmodified IAPP, in words [2]","Cell death in Live/Dead assay, in words [3]","Maximum membrane leakage (calcein fluorescence, % of that with Triton X-100) [4]",Lag time of amyloid formation [5],"Incubation time at which membrane leakage starts ([4]; LUVs DOPC:DOPG 9:1, pH 7.4)"
CC[C@H](C)[C@H](NC(=O)[C@H](C)NC(=O)CNC(=O)[C@H](Cc1ccccc1)NC(=O)[C@H](CC(N)=O)NC(=O)[C@H](CC(N)=O)NC(=O)[C@H](CO)NC(=O)[C@H](CO)NC(=O)[C@H](Cc1c[nH]cn1)NC(=O)[C@@H](NC(=O)[C@H](CC(C)C)NC(=O)[C@H](Cc1ccccc1)NC(=O)[C@H](C)NC(=O)[C@H](C)NC(=O)[C@H](CC(C)C)NC(=O)[C@H](CCCNC(=N)N)NC(=O)[C@H](CCC(N)=O)NC(=O)[C@@H](NC(=O)[C@H](C)NC(=O)[C@@H]1CSSC[C@H](NC(=O)[C@@H](N)CCCCN)C(=O)N[C@@H](CC(N)=O)C(=O)N[C@@H]([C@@H](C)O)C(=O)N[C@@H](C)C(=O)N[C@@H]([C@@H](C)O)C(=O)N1)[C@@H](C)O)C(C)C)C(=O)N[C@@H](CC(C)C)C(=O)N[C@@H](CO)C(=O)N[C@@H](CO)C(=O)N[C@H](C(=O)N[C@@H](CC(N)=O)C(=O)N[C@H](C(=O)NCC(=O)N[C@@H](CO)C(=O)N[C@@H](CC(N)=O)C(=O)N[C@H](C(=O)N[C@@H](Cc1ccc(O)cc1)C(N)=O)[C@@H](C)O)C(C)C)[C@@H](C)O [N14A],dense network of thin fibrils,high ANS signal,low ThT fluorescence,48 h,helical-like conformation with two minima at 206 and 222 nm between 2 and 24 h incubation,only poorly defined fibrils,50%,reduced IAPP toxicity,decreased toxicity compared to unmodified IAPP,50%,–,–
"CC[C@H](C)[C@H](NC(=O)[C@H](C)NC(=O)CNC(=O)[C@H](Cc1ccccc1)NC(=O)[C@H](CC(N)=O)NC(=O)[C@H](CC(N)=O)NC(=O)[C@H](CO)NC(=O)[C@H](CO)NC(=O)[C@H](Cc1c[nH]cn1)NC(=O)[C@@H](NC(=O)[C@H](CC(C)C)NC(=O)[C@H](Cc1ccccc1)NC(=O)[C@H](CC(N)=O)NC(=O)[C@H](C)NC(=O)[C@H](CC(C)C)NC(=O)[C@H](CCCNC(=N)N)NC(=O)[C@H](CCC(N)=O)NC(=O)[C@@H](NC(=O)[C@H](C)NC(=O)[C@@H]1CSSC[C@H](NC(=O)[C@@H](N)CCCCN)C(=O)N[C@@H](CC(N)=O)C(=O)N[C@@H]([C@@H](C)O)C(=O)N[C@@H](C)C(=O)N[C@@H]([C@@H](C)O)C(=O)N1)[C@@H](C)O)C(C)C)C(=O)N[C@@H](CC(C)C)C(=O)N[C@@H](CO)C(=O)N[C@@H](CO)C(=O)N[C@H](C(=O)N[C@@H](CC(N)=O)C(=O)N[C@H](C(=O)NCC(=O)N[C@@H](CO)C(=O)N[C@@H](CC(N)=O)C(=O)N[C@H](C(=O)N[C@@H](Cc1ccc(O)cc1)C(N)=O)[C@@H](C)O)C(C)C)[C@@H](C)O [IAPP, islet amyloid polypeptide]",prototypical fibrils,–,increase of ThT and ANS fluorescence,24 h,–,–,less than 10%,concentration-dependent decrease of metabolic activity,sharp increase in the number of red cells and a decrease of green cells,17%,3.9 ± 1.2 h,5 h
"V17A: full-length IAPP with Val17 substituted by Ala (KCNTATCATQRLANFLAHSSNNFGAILSSTNVGSNTY; disulfide 2-7; ends not checked; UniProt P10997 34-70, looked up, variant V17A)",short and poorly defined fibrils,–,low ThT and ANS binding properties,–,delayed the conformational transition,–,–,reduced IAPP toxicity,decreased toxicity compared to unmodified IAPP,34%,–,–
